# Laboratory results from PubChem BioAssay (NCI).
#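 Dose response: 5 concentrations. Exposure: 48 h. Format: 96-well plates. Endpoint: linear interpolation; highest concentration if not reached. GI50: concentration for 50% inhibition of growth. TGI: total growth inhibition.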
# Experiments:
# Experiment in all cases: NCI anticancer screen, dose series, 48 h
# [1] = system: SF-268 CNS
# [2] = system: SF-295 CNS
# [3] = system: RPMI-8226 leukemia
# [4] = system: HL-60(TB) leukemia
# [5] = system: U251 CNS
# [6] = system: SK-MEL-2 melanoma
# [7] = system: OVCAR-4 ovarian
# [8] = system: SR leukemia
# [9] = system: HCT-15 colon
# [10] = system: MDA-MB-435
SMILES,TGI [1] [µM],TGI [2] [µM],TGI [3] [µM],TGI [4] [µM],TGI [5] [µM],TGI [6] [µM],TGI [7] [µM],GI50 [1] [µM],GI50 [2] [µM],GI50 [3] [µM],GI50 [4] [µM],GI50 [8] [µM],TGI [8] [µM],GI50 [5] [µM],GI50 [7] [µM],GI50 [9] [µM],TGI [9] [µM],GI50 [6] [µM],GI50 [10] [µM],TGI [10] [µM]
CC(C)N(C(=O)C12C3C4C5(C#N)C3C1(C#N)C5C42C#N)C(C)C (stereo not given),> 100,> 100,> 100,> 100,> 100,> 100,> 100,,,,,,,,,,,,,
CCOC(=O)c1cc(C(=O)c2ccc(OC)cc2)n2ccc(/C=C/c3cc[n+](CC(=O)c4ccc(OC)cc4)cc3)cc12,4.52,> 100,4.85,4.24,4.57,,2.94,2.09,> 100,1.65,1.78,0.367,2.29,1.68,1.26,5.67,> 100,,,
C=CN(C(=O)N1CCN(c2cc3c(cc2F)c(=O)c(C(=O)O)cn3C2CC2)CC1)c1nc(-c2ccc(OC)cc2)cs1,> 100,8.26,> 100,,13.4,5.21,> 100,4.14,2.83,2.75,,2.69,> 100,4.04,3.96,2.86,> 100,2.59,,
COc1cc(/C=C/c2cc(/C=C/c3ccc(O)c(OC)c3)n(C(=O)c3ccc(Cl)cc3)n2)ccc1O,13.6,12.4,6.33,7.62,11.6,5.85,34.9,2.65,3.13,1.83,1.58,,,2.94,2.02,1.54,26.1,1.92,0.449,10.7
O=C(NCCCCN1CCOCC1)c1cc2ccccc2o1,> 100,> 100,,,> 100,> 100,> 100,> 100,> 100,,,,,> 100,> 100,> 100,> 100,> 100,> 100,> 100
C=C(c1ccc(OC)c(/C=C/C(=O)c2ccc3c(c2)OCO3)c1)c1cc(OC)c(OC)c(OC)c1,> 100,> 100,7.39,> 100,9.88,> 100,> 100,3.18,4.14,1.56,2.67,0.907,> 100,2.54,3.93,,,4.25,,
O=C1[C@H]2ON(c3ccccc3)C(c3ccc([N+](=O)[O-])cc3)[C@H]2C(=O)N1c1ccc(Cc2ccc(N3C(=O)[C@@H]4ON(c5ccccc5)C(c5ccc([N+](=O)[O-])cc5)[C@@H]4C3=O)cc2)cc1 (stereo not given in full),> 100,> 100,> 100,> 100,> 100,> 100,> 100,,,,,,,,,,> 100,,,
